Patent US20100087547A1, “Use of a Blood-Flow Decrease Preventing Agent in Conjunction With Insufflating Gas” (priority 2001, published 2010)

Legend:
fetal PO2 = experiment: Fetal PO2 during laparoscopic evaluation of a pregnant female (Example II); type: in vivo, human; details: 32 weeks pregnant female, 100 ppm added to carbon dioxide insufflating gas; fetal PO2 before addition 7 mmHg, electrode on the head
Experimental: A person, 32 weeks pregnant, undergoes laparoscopic evaluation for right lower quadrant pain. Thirty minutes into the procedure, fetal PO2, measured by an electrode placed on the head, is 7 mmHg. 100 ppm ethyl nitrite is added to the carbon dioxide insufflating gas, and the fetal PO2 increases to 25 mm Hg.

blood-flow in liver = experiment: Liver blood-flow by laser Doppler flow method in anesthetized pigs during and after carbon dioxide insufflation (Example I); type: in vivo; details: adult pigs
Experimental: Ten adult pigs were anesthetized at time zero using halothane anesthetic. A small cut was made in the abdomen to allow access inside the peritoneum. In the case of one group of five pigs, denoted group A, an insufflating needle was inserted, and starting at time 1 hour and 48 minutes, an insufflating gas consisting of carbon dioxide was delivered into the abdominal cavity to standard operating pressure (of 15 mm Hg) and the insufflating gas was maintained in the abdominal cavity for 1 hour whereupon the insufflating gas was removed by suction. In the case of another group of five pigs, denoted group B, an insufflating needle was inserted, and starting at time 1 hour and 35 minutes, an insufflating gas consisting of carbon dioxide and 100 ppm ethyl nitrite was delivered to the abdominal cavity to standard operating pressure and the insufflating gas was maintained in the abdominal cavity for about 1⅕ hour whereupon the insufflating gas was removed by suction. In both cases, blood-flow in liver was monitored by a laser Doppler flow method (a standard method where […] are projected at flowing blood and bounce back) whereby blood-flow is determined starting at time 5 minutes after time zero in the case of group A, and starting at about time 20 minutes after time zero in the case of group B and continuing until 2 hours after insufflating gas was removed. In FIGS. 1 and 2, the Doppler Flow Units are arbitrary units. In FIG. 3, the term “Relative Flow” means relative blood-flow in liver compared to baseline. […] FIG. 1 illustrates that carbon dioxide pneumoperitoneum produces a decrease in blood-flow to the liver, which was sustained even after the procedure was completed.

[1] = tested on: abdominal pain suggestive of intestinal ischemia; experiment: Laparoscopic cholecystectomy, abdominal pain suggestive of intestinal ischemia (Example III); type: in vivo, human; details: person, 100 ppm added to the insufflating gas one hour into the procedure
Description: A person undergoes laparoscopic cholecystectomy.

renal perfusion = experiment: Laparoscopy in a person with renal artery stenosis, renal perfusion (Example IV); type: in vivo, human; details: 100 ppm added to insufflating gas
Description: A person with renal artery stenosis undergoes laparoscopy appendectomy and diagnostic evaluation of a renal mass.

[2] = tested on: blood pressure, pulmonary and renal functions; experiment: Laparoscopic appendectomy, agent nebulized into the abdominal cavity (Example V); type: in vivo, human; details: person, 3 cc of 100 micromolar nebulized into the abdominal cavity
Description: A person undergoes laparoscopic appendectomy. Because of concerns of impaired renal function, pulmonary function and hypertension, nitroglycerin (3 cc of 100 micromolar) is nebulized into the abdominal cavity. Blood pressure increases are prevented and pulmonary and renal functions are kept stable.

Row | SMILES | fetal PO2 after addition of agent (fetal PO2) | more blood-flow in liver than with carbon dioxide only, 2 hours post-insufflation (FIG. 3) (blood-flow in liver; 100 ppm ethyl nitrite in carbon dioxide, 2 hours after insufflating gas is removed) | more blood-flow in liver than with carbon dioxide only, during insufflation (FIG. 3) (blood-flow in liver; 100 ppm ethyl nitrite in carbon dioxide, average values while insufflating gas is present) | effect on carbon dioxide induced decline in liver perfusion (FIG. 2) (blood-flow in liver; group B, carbon dioxide with 100 ppm ethyl nitrite, 15 mm Hg, laser Doppler flow) | abdominal pain [1] | decrease in blood-flow (renal perfusion) (renal perfusion) | blood pressure increases [2] | pulmonary function [2] | renal function [2]
1 | CCON=O [ethyl nitrite] | 25 mm Hg | about 40% | about 70% | protects against carbon dioxide induced decline in liver perfusion | resolution of abdominal pain | protects against decrease in blood-flow | – | – | –
2 | O=[N+]([O-])OCC(CO[N+](=O)[O-])O[N+](=O)[O-] [nitroglycerin] | – | – | – | – | – | – | prevented | kept stable | kept stable
